Where two headings read alike, the source gives them in different places. Residues, ends and D or L forms follow the SMILES beside them. *: point of attachment. Cbz = O=C(OCc1ccccc1)*; CH2F = FC*

The term IC50 denotes the concentration that inhibits the measured activity by half.

What all share (format): cell-based, human
One data set concerns U266 and RPMI cell lines. Description: Pretreatment with antagonists/inhibitors before WIN-55, MTT viability. To be noted: for effect of inhibitor on WIN-55-induced apoptosis / loss of viability: WIN-55 at suboptimal concentrations, 18 hours; for effect of preincubation with CB2 antagonist on pro-apoptotic effect induced by WIN-55: 30 minutes pretreatment, then WIN-55 up to 18 hours. Here is the method:
(§1) The MM cell lines and primary cells were exposed to different doses of indazole compounds, and viability was evaluated at 18, 48, and 72 hours. Pretreatments with the ceramide synthesis inhibitor (FB1), pan-caspase (ZVAD-FMK), and CB antagonists (PGN-8, PGN-37, and PGN-70) were performed for 30 minutes, and then the cells were incubated with indazole compound WIN-55 up to 18 hours. Cell viability was determined using the MTT assay Cell Counting Kit-8 (Dojindo, Kumamoto, Japan) according to the manufacturer's instructions.

Data set [1] has as its system U266. Description: Western blot and immunofluorescence in U266 cells. Particulars: U266, 50 μM fumonisin B1. Here is the method: The extracts for Western blot were taken after 0, 2, 6, 18, and 24 hours. The cells were lysed according to Gilbert et al., 2002. (J Immunol Methods. 2002, 271:185-201), by adding 2% ASB-14 (Calbiochem, Beeston, United Kingdom) to the isotonic lysis buffer. The protein concentration was determined by Pierce® Microplate BCA Protein Assay kit-Reducing Agent Compatible (Pierce, Rockford, Ill.). The samples were subjected to SDS/PAGE in AnykD precast gels (Bio Rad, Hercules, Calif.) and transferred to PVDF membranes using Trans-Blot® Turbo™ System (Bio-Rad). The membranes were incubated over night at 4° C. with primary antibody in 0.05% Tween 20-Tris buffered saline (TTBS) then with the suitable secondary antibody, and they were subjected to chemiluminescence detection. As a control condition, the cells were treated with DMSO (<0.15%) in RPMI 1640 medium from Gibco (Gaithersburg, Md.).
The antibodies for caspase-2, -8, -9, active caspase-3, -p-Akt (phospho T308), p-Erk (T202+Y204), -p-p38MAPK (phospho T180+Y182), -p-JNK (phospho T183+Y185), -SPT, and the CB1 and CB2 receptors were from Abcam, anti-MCL-1 and -Bcl-xL were from Santa Cruz Biotechnology, anti-PARP was from Cell Signaling Technology, anti-Bax and -Bak were from BD Biosciences. Anti-beta-tubulin was from Sigma-Aldrich. All the horseradish peroxidase (HRP)-conjugated secondary antibodies used were from Jackson ImmunoResearch and produced in a donkey to prevent the possible cross-reactivity when several tests were performed.
The cells treated for 6 hours with indazole compounds were collected and placed on a slide. Immunofluorescence staining was performed as described previously by Vielhaber et al. 2001 (Glycobiology. 2001, 11:451-7) using anti-ceramide as the primary antibody. The ceramide antibody was obtained from Sigma-Aldrich, and the Alexa-488-conjugated secondary antibody was obtained from Abcam. As a control condition, the cells were treated with DMSO (<0.15%) in RPMI 1640 medium from Gibco (Gaithersburg, Md.).

A further data set deals with HL60 and KG-1a. Description: Antagonists/inhibitors together with WIN-55,212-2, WST-1 viability in AML cells. To be noted: WIN-55,212-2 10 μM, 18 hours; for effect of inhibitor on cannabinoid-induced loss of viability: WST-1; for effect of CB2 antagonist on cannabinoid-induced apoptosis: HL60 and KG1-a. Here is the method: The cell lines and primary cells were cultured in 96-well plates (5×10e5 cells per well) with the addition of the indicated concentrations of WIN 55,212-2 or PGN cannabinoids in DMSO or with the solvent only in triplicate at 18, 48, and 72 hours. Caspase inhibitor Z-VAD (OMe)-FMK or the CB2 receptor antagonist PGN-8, -37, and -70, together with the cannabinoid WIN-55,212-2, were also added. Cell viability was determined by means of the WST-1 assay [2-(4-iodophenyl)-3-(4-nitrophenyl)-5-(2,4-disulfophenyl)-2H-tetrazolium] according to the manufacturer's instructions (Dojindo Molecular Technologies). Optical densities were measured at 450 nm using a Multiskan™ Go Microplate plate reader (Thermo Fisher Scientific, Waltham, Mass., USA).

The test system of data set [2] is U266. Nature of the data set: MTT cell viability assay, myeloma cell line U266. Particulars: read-out: IC50, cell viability. Here is the method: (§2) In vitro studies were carried out using six different human MM cell lines, U266, RPMI8226, MM1S, MM1R, U266-LR7, and RPMI-LR5. For ex vivo assays, human primary cells from healthy donors and MM patients were used (Table 1). Human MM cell lines U266, RPMI8226, and MM1.S were acquired from ATCC and lines U266-LR7, RPMI-LR5, and MM1.R were kindly provided by Dr. Enrique Ocio (Hospital Universitario de Salamanca, Spain). The primary cells were obtained from bone marrow (BM) aspirates or peripheral blood (PB) samples, and the peripheral blood mononuclear cells (PBMCs) were isolated by Ficoll-Hypaque centrifugation and washed twice in phosphate buffered saline (PBS) containing 1% BSA. Hematopoietic stem cells and B and T lymphocytes were isolated from healthy PB donors by positive immunomagnetic separation using human MACS CD34+, CD19+, and CD3+ microbeads, respectively. MM plasma cells were obtained from the bone marrow (BM) of patients with an infiltration of cells of more than 30% (Table 1). The MM plasma cells were identified using CD138+, and were then distinguished from the other cell populations by flow cytometry using a suitable combination of antibodies: anti-human CD64-FITC, CD34-PE, CD56-APC, CD38-APC-H7, and CD45-Pacific Blue antibodies (BD Biosciences, San Jose, Calif.). All the cell lines were cultured in RPMI-1640 supplemented with 10% fetal bovine serum (FBS) and 1% penicillin/streptomycin, as recommended by the supplier. For human primary cells, the concentration of FBS was up to 20%.
as §1
For orientation: Tetrazolium dyes change colour on reduction, which living cells bring about.

For another data set, the system named is RPMI-LR5. Nature of the data set: MTT cell viability assay, myeloma cell line RPMI-LR5. To be noted: read-out: IC50, cell viability. Here is the method: as §2, §1
Data set [3] concerns lymphocytic T-cells (CD3+) and B-cells (CD19+). Description: Viability of T and B lymphocytes from healthy donors (MTT). Here is the method: as §2, with “The MM plasma cells were identified using CD138+, and were then distinguished from the other cell populations by flow cytometry using a suitable combination of antibodies: anti-human CD64-FITC, CD34-PE, CD56-APC, CD38-APC-H7, and CD45-Pacific Blue antibodies (BD Biosciences, San Jose, Calif.). All the cell lines were cultured in RPMI-1640 supplemented with 10% fetal bovine serum (FBS) and 1% penicillin/streptomycin, as recommended by the supplier. For human primary cells, the concentration of FBS was up to 20%.” left out
The MM cell lines and primary cells were exposed to different doses of indazole compounds, and viability was evaluated at 18, 48, and 72 hours. […] Cell viability was determined using the MTT assay Cell Counting Kit-8 (Dojindo, Kumamoto, Japan) according to the manufacturer's instructions.

The next data set relates to MM1R. Description: MTT cell viability assay, myeloma cell line MM1R. To be noted: read-out: IC50, cell viability. Here is the method: as §2, §1
A further data set relates to myeloma cell lines. Description: MTT cell viability assay, average over all myeloma cell lines. To be noted: read-out: IC50 average. Here is the method:
as §2, §1

Another data set concerns RPMI8226. Nature of the data set: MTT cell viability assay, myeloma cell line RPMI. To be noted: read-out: IC50, cell viability. Here is the method: as §2, §1
The subject of another data set is U266-LR7. Description: MTT cell viability assay, myeloma cell line U266-LR7. Particulars: read-out: IC50, cell viability. Here is the method:
as §2, §1

Another data set has as its system MM1S. Description: MTT cell viability assay, myeloma cell line MM1S. To be noted: read-out: IC50, cell viability. Here is the method: as §2, §1
Another data set has as its system HL60. Description: Western blot and immunocytofluorescence in HL60 cells. To be noted: HL60, WIN-55,212-2 10 μM. From the text:
The detailed methodology for analyzing mitochondrial membrane potential (APm), Western Blot analysis, and immunocytofluorescence analysis has been described elsewhere 29
On the technique in general: A western blot detects proteins with antibodies after separation by electrophoresis.

[4] abbreviates: Homo sapiens, U-266, U266, MTT, 18 hours, doses 0-50 μM.
Where [5] appears, read: Homo sapiens, RPMI-LRS, MTT, 18 hours, doses 0-50 μM.
The mark [6] stands for this setting: Homo sapiens, MM.1R, MM1R, MTT, 18 hours, doses 0-50 μM.
The mark [7] stands for this setting: Homo sapiens, average over the six myeloma cell lines, MTT, 18 hours.
The mark [8] stands for this setting: Homo sapiens, RPMI-8226, RPMI, MTT, 18 hours, doses 0-50 μM.
The mark [9] stands for this setting: Homo sapiens, U266-LR7, MTT, 18 hours, doses 0-50 μM.

Regarding `CCCC[C@@H](C)[C@@H](OC(=O)C[C@@H](CC(=O)O)C(=O)O)[C@H](C[C@@H](C)C[C@H](O)CCCC[C@@H](O)C[C@H](O)[C@H](C)N)OC(=O)C[C@@H](CC(=O)O)C(=O)O` [FB1, Fumonisin B1], the “effect of inhibitor on WIN-55-induced apoptosis / loss of viability” value in the data set with U266 and RPMI cell lines is given as “significantly reverses the effect”. Moreover, the “effect on PARP fragmentation induced by WIN-55” value in the data set on U266 [1] was “considerably prevented the PARP fragmentation”. Also, the “effect of inhibitor on cannabinoid-induced loss of viability” value with HL60 and KG-1a is recorded as “only partially prevented”.
Take `c1ccc2c(COc3nn(CCN4CCCCC4)c4ccccc34)cccc2c1` [PGN6, 3-(1-naphthylmethoxy)-1-(2-piperidinoethyl)indazole]: the IC50 with U266 [2] (setting [4]) stood at 25.4 µM; with RPMI-LR5 (setting [5]), 13.7 µM; with MM1R (setting [6]), 18.6 µM; in the data set with myeloma cell lines (setting [7]) it was 29.7 µM; in the data set on RPMI8226 (setting [8]) it was 14.4 µM; in the data set with U266-LR7 (setting [9]) it was 78.2 µM. In addition, the “viability of the lymphocytes” value in [3] is “did not affect the viability of the lymphocytes”.
Turning to `c1ccc2c(COc3nn(CCN4CCCC4)c4ccccc34)cccc2c1` [PGN17], the IC50 came out at 20.7 µM in the data set on U266 [2] (U266, MTT, 18 hours, doses 0-50 μM); 21.7 µM with RPMI-LR5 (RPMI-LRS, MTT, 18 hours, doses 0-50 μM); 20.5 µM in the data set on MM1R (MM1R, MTT, 18 hours, doses 0-50 μM); 44.6 µM with MM1S (MM1S, MTT, 18 hours, doses 0-50 μM); 29.7 µM with myeloma cell lines (average over the six myeloma cell lines, MTT, 18 hours); 19.9 µM with RPMI8226 (RPMI, MTT, 18 hours, doses 0-50 μM). Besides, the IC50 with U266-LR7 (U266-LR7, MTT, 18 hours, doses 0-50 μM) worked out at 51 µM. For the same compound, the “viability of the lymphocytes” value in data set [3] (healthy donors, doses with antiproliferative effect on MM cell lines) is recorded as “did not affect the viability of the lymphocytes”.
For the compound `Nc1ccc2c(c1)c(OCc1ccc3ccccc3c1)nn2CCN1CCCCC1` [PGN34, 5-amino-3-(2-naphthylmethoxy)-1-(2-piperidinoethyl)indazole], the IC50 in the data set on U266 [2] (Homo sapiens, U-266, 18 h) stood at 26.9 µM; in the data set with RPMI-LR5 (Homo sapiens, 18 h), 23.2 µM; in the data set with MM1R (Homo sapiens, MM.1R, 18 h), 21 µM; in the data set on MM1S (Homo sapiens, MM1.S, 18 h), 17.1 µM; in the data set with myeloma cell lines (Homo sapiens, 18 h), 20.2 µM; in the data set on RPMI8226 (Homo sapiens, RPMI-8226, 18 h) it was 15.4 µM. In addition, the IC50 in the data set with U266-LR7 (Homo sapiens, 18 h) turned out to be 17.8 µM.
Take `Nc1ccc2c(c1)c(OCc1cccc3ccccc13)nn2CCN1CCCCC1` [PGN72, 5-amino-3-(1-naphthylmethoxy)-1-(2-piperidinoethyl)indazole]: the IC50 was determined as 21.2 µM in the data set on U266 [2] (setting [4]); 41.4 µM in the data set with RPMI-LR5 (setting [5]); 26.7 µM in the data set on MM1R (setting [6]); 24.8 µM in the data set with MM1S (Homo sapiens, MM1.S, MM1S, MTT, 18 hours, doses 0-50 μM); 25.7 µM with myeloma cell lines (setting [7]); 19.6 µM in the data set with RPMI8226 (setting [8]). In addition, in the data set with U266-LR7 (setting [9]), the IC50 came out at 20.6 µM.
For `Cn1nc(OCc2cccc3ccccc23)c2cc([N+](=O)[O-])ccc21` [PGN-8, 1-methyl-3-(1-naphthylmethoxy)-5-nitroindazole], the “effect of preincubation with CB2 antagonist on pro-apoptotic effect induced by WIN-55” value (“effect of preincubation” for short) in the data set on U266 and RPMI cell lines is “considerably inhibited”. Also, in the data set with HL60 and KG-1a, the “effect of CB2 antagonist on cannabinoid-induced apoptosis” value (“effect of CB2 antagonist” below) is “significantly inhibiting cannabinoid-induced apoptosis”.
Take `COc1ccc(COc2n[nH]c3ccc([N+](=O)[O-])cc23)cc1` [PGN-37, 3-(4-methoxybenzyloxy)-5-nitro-1H-indazole]: the “effect of preincubation” value with U266 and RPMI cell lines is recorded as “considerably inhibited”. Further, in the data set on HL60 and KG-1a, the “effect of CB2 antagonist” value is “significantly inhibiting cannabinoid-induced apoptosis”.
Turning to `O=[N+]([O-])c1ccc2[nH]nc(OCc3cccc4ccccc34)c2c1` [PGN-70, 3-(1-naphthylmethoxy)-5-nitro-1H-indazole], the “effect of preincubation” value with U266 and RPMI cell lines is recorded as “considerably inhibited”. The “effect of CB2 antagonist” value in the data set with HL60 and KG-1a is on record as “significantly inhibiting cannabinoid-induced apoptosis”.
For `COC(=O)C[C@H](NC(=O)[C@H](C)NC(=O)[C@@H](NC(=O)OCc1ccccc1)C(C)C)C(=O)CF` [Z-VAD-FMK] (Cbz-Val-Ala-Asp(OMe)-CH2F), in the data set on U266 and RPMI cell lines, the “effect of inhibitor on WIN-55-induced apoptosis / loss of viability” value is given as “prevented the apoptosis”. For the same compound, the “effect of inhibitor on cannabinoid-induced loss of viability” value with HL60 and KG-1a is “abolished”.
Take `CCCCCCC(=O)CCCCCC/C=C/C[C@@H](O)[C@H](O)[C@@](N)(CO)C(=O)O` [myriocin, Myriocin]: the “effect on PARP fragmentation and Casp 3 cleavage induced by WIN-55,212-2” value with HL60 is “prevented the fragmentation of PARP and the cleavage of Casp 3”.

Values taken from US20200281897A1, “INDAZOLE DERIVATIVES FOR CANCER TREATMENT” (Servicio Andaluz de Salud, priority 2016, published 2020).
